# In PubChem BioAssay (NCI):
#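 Test compounds were applied to cells in 96-well plates for 48 hours at 5 doses. The concentration for 50% growth inhibition is given as GI50. The concentration for full growth arrest is given as TGI.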
# Experiments:
# Test in all cases: inhibition of tumour cell growth, NCI panel, 48 h
# HL-60(TB) leukemia = test system: HL-60(TB) leukemia
# OVCAR-5 ovarian = test system: OVCAR-5 ovarian
# OVCAR-3 ovarian = test system: OVCAR-3 ovarian
# UO-31 renal = test system: UO-31 renal
# SNB-19 CNS = test system: SNB-19 CNS
# HCT-116 colon = test system: HCT-116 colon
# SN12C renal = test system: SN12C renal
# RXF 393 renal = test system: RXF 393 renal
# OVCAR-4 ovarian = test system: OVCAR-4 ovarian
# CCRF-CEM leukemia = test system: CCRF-CEM leukemia
SMILES,GI50 (HL-60(TB) leukemia) [µM],TGI (HL-60(TB) leukemia) [µM],GI50 (OVCAR-5 ovarian) [µM],TGI (OVCAR-5 ovarian) [µM],GI50 (OVCAR-3 ovarian) [µM],TGI (OVCAR-3 ovarian) [µM],GI50 (UO-31 renal) [µM],TGI (UO-31 renal) [µM],GI50 (SNB-19 CNS) [µM],TGI (SNB-19 CNS) [µM],GI50 (HCT-116 colon) [µM],TGI (HCT-116 colon) [µM],GI50 (SN12C renal) [µM],TGI (SN12C renal) [µM],GI50 (RXF 393 renal) [µM],TGI (RXF 393 renal) [µM],GI50 (OVCAR-4 ovarian) [µM],TGI (OVCAR-4 ovarian) [µM],GI50 (CCRF-CEM leukemia) [µM],TGI (CCRF-CEM leukemia) [µM]
O=C(N[C@@H]1CCCc2ccccc21)[C@H](CCC(=O)N1CCN(C2CCCCC2)CC1)N1C(=O)[C@@H](N2C(=O)OC[C@@H]2c2ccccc2)[C@H]1/C=C/c1ccccc1,2.1,5.71,4.01,47.5,1.72,3.81,2.01,8.68,3.66,25.2,1.8,4.68,3.72,27.3,1.71,3.34,3.11,32,2.83,8.87
COc1ccc([Se]c2ccc(OC)cc2OC)c(OC)c1,–,> 100,–,> 100,–,> 100,–,65.8,–,> 100,–,46.5,–,> 100,–,59.5,–,> 100,–,> 100
CCOP(=O)(OCC)/C(C#N)=C\c1cccc2ccccc12,–,> 62.8,–,> 100,–,> 100,–,> 100,–,> 100,–,> 100,–,> 100,–,> 100,–,> 100,–,97.7
CC(C)(C)n1cc(-c2ccnc(NCCNS(=O)(=O)c3ccc(Br)cc3)c2)c(-c2cccc(O)c2)n1,0.581,2.88,1.78,3.53,1.85,3.68,1.35,4.47,2.29,5.67,1.44,2.86,1.72,3.2,1.49,3.23,1.55,3.59,2.69,18.2
COc1ccc2nc3ccc(OC)cc3c(SCCCN)c2c1,4.34,9.49,13.5,28.3,2.73,6.88,3.91,18.3,14.4,36.7,3.21,12.6,10.8,25.5,2.42,9.85,5.02,17,1.76,4.11
Cc1c(C(C)C)cc(OCCO)cc1C(C)C,–,56.9,–,> 100,–,> 100,–,> 100,–,> 100,–,> 100,–,93.1,–,36.2,–,> 100,–,> 100
O=C1C=C(Nc2cccc(Br)c2)c2ccccc2C1=O,9.56,34.5,14.5,34.3,2.89,16,1.81,33.6,6.56,> 100,10.6,44.5,5.79,23.8,3.27,22.4,11,63.2,21.4,82.9
COc1cc(C2C3=C(COC3=O)N(CCO)c3cc4c(cc32)CCC4)cc(OC)c1O (centres undefined),0.0874,0.448,3.18,> 32.5,0.0703,0.184,0.426,> 32.5,0.318,> 32.5,0.138,> 12.5,0.499,> 32.5,0.0943,–,0.278,> 32.5,1.21,> 32.5
COC(=O)C(CC=O)C(=O)C(=O)Nc1cccc(C(F)(F)F)c1 (centres undefined),–,> 100,–,> 100,–,> 100,–,> 100,–,> 100,–,> 100,–,> 100,–,> 100,–,> 100,–,> 100
COc1ccc(S(=O)(=O)N/N=C/C(=O)O)cc1,–,463,–,> 1150,–,1160,–,> 1250,–,> 1250,–,1030,–,1140,–,1150,–,> 1210,–,712
Cc1ccc(NCSc2ccc(Cl)cc2)cc1,2.45,> 100,> 100,> 100,9.22,> 100,1.65,30.8,46.9,> 100,55.4,> 100,7.01,> 100,30.4,> 100,5.06,> 100,0.995,> 100
